Common to all, as to test: microbe, parasite or virus in culture
Holding throughout (format): cell-based

Experiment [1] concerns SARS-CoV-2 delta (B.1.617.2). As to conditions: for Selectivity index: SARS-CoV-2δ, HEK293TA cells; for EC50: Severe acute respiratory syndrome coronavirus 2.
The test system of experiment [2] is SARS-CoV-2 alpha (B.1.1.7). As to conditions: for Selectivity index: SARS-CoV-2α, HEK293TA cells; for EC50: Severe acute respiratory syndrome coronavirus 2.
Experiment [3] relates to SARS-CoV-2gamma (P.1). To be noted: for Selectivity index: SARS-CoV-2γ, HEK293TA cells; for EC50: Severe acute respiratory syndrome coronavirus 2.

Some results are limits rather than exact numbers.

Broadly, the EC50 is the concentration giving half of the maximal effect. In the case of `O=C(CCCCCCCCc1ccc(O)c(O)c1)c1c(O)cccc1O` [Compound 1, Malabaricone C], the “Selectivity index” value in experiment [1] stood at 3.4; in experiment [2], 2.6; in experiment [3], 3.6. Further, the concentration giving a half-maximal response (EC50) in experiment [1] is 1900 nM; in experiment [2], 1900 nM; in experiment [3], 1700 nM.
Regarding `CC(C)C(=O)OC[C@H]1O[C@@H](n2ccc(NO)nc2=O)[C@H](O)[C@@H]1O` [Molnupiravir], the “Selectivity index” value in experiment [1] is listed as 13; in experiment [2], 14.7; in experiment [3], 13. The concentration giving a half-maximal response (EC50) in experiment [1] amounted to 450 nM; in experiment [2], 400 nM; in experiment [3], 520 nM.
`CCC(CC)COC(=O)[C@H](C)N[P@](=O)(OC[C@H]1O[C@@](C#N)(c2ccc3c(N)ncnn23)[C@H](O)[C@@H]1O)Oc1ccccc1` [Remdesivir]: the half-maximal effective concentration (EC50) in experiment [1], in experiment [2] and in experiment [3] was less than 78 nM each time.

For the origin of these results see article PMC11903690 (Scientific Reports, 2025).
